Data on 58 compounds can be found in US20240262806A1, “INHIBITORS OF NLRP3” (PTC THERAPEUTICS, INC., priority 2021, published 2024).

Structures are written as SMILES. Structures can show the parent of a compound that is named as a salt. Some results are limits rather than exact numbers.

By IC50 is commonly meant the concentration that inhibits the measured activity by half.

The subject of this assay is NLRP3 inflammasome. In words: IL-1β Secretion Assay (NLRP3-dependent IL-1β secretion in PMA-differentiated THP-1 cells, nigericin activation, HTRF). Conditions: Homo sapiens, THP-1, THP-1 cells, 100 ng/mL PMA 24 h, compound 20 h, 2.5 μM Nigericin 3 h; read-out: IC50 IL-1β Inhibition. Type of assay: cell-based. Summed up: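 PMA-differentiated THP-1 cells in RPMI with 5% FBS were treated with compounds at 7 concentrations in threefold DMSO dilutions. NLRP3 was activated with nigericin and secreted IL-1β measured by HTRF. IC50 from a logistic fit of percent inhibition versus concentration.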
As for `Cc1cc2c(-c3ccc(Br)cc3O)nnc(N[C@@H]3CCCN(C)C3)n2n1` [Compound I-334], the IC50 was below 0.001 µM.

On to `CCN1CCC[C@@H](Nc2nnc(-c3ccc(C(F)(F)F)cc3OC(F)F)c3cccn23)C1` [Compound I-335], for which the IC50 is below 0.001 µM.

Take `Cc1cc2c(N[C@@H]3CCCN(C)C3)nnc(-c3ccc(C(F)(F)F)cc3O)n2n1` [Compound I-336]: the IC50 was 0.01 to 0.1 µM.

With `Cc1ccc(-c2nnc(N[C@@H]3CCCN(C)C3)n3cccc23)c(O)c1` [Compound I-337], the 50% inhibitory concentration (IC50) fell in the range of 0.001 to 0.01 µM.

In the case of `Cc1cc2c(N[C@@H]3CCCN(CCO)C3)nnc(-c3ccc(C(F)(F)F)cc3O)n2n1` [Compound I-338], the IC50 lay within 0.01 to 0.1 µM.

As for `COc1ccc(-c2nnc(N[C@@H]3CCCNC3)c3cc(C)nn23)c(O)c1` [Compound I-339], the IC50 lay within 0.1 to 0.3 µM.

For `Oc1cc(C2CC2)ccc1-c1nnc(N[C@@H]2CCCN(C3CCOCC3)C2)n2cccc12` [Compound I-340], the IC50 fell in the range of 0.001 to 0.01 µM.

As to `Cc1cc(O)c(-c2nnc(N[C@@H]3CCCN(CCO)C3)n3cccc23)c(F)c1` [Compound I-341], the IC50 fell in the range of 0.001 to 0.01 µM.

Turning to `Cc1cc(O)c(-c2nnc(N[C@@H]3CCCN(C)C3)n3cccc23)c(F)c1` [Compound I-342, 3-Fluoro-5-methyl-2-[4-[[(3R)-1-methyl-3-piperidyl]amino]pyrrolo[1,2-d][1,2,4]triazin-1-yl]phenol], the IC50 fell in the range of 0.001 to 0.01 µM.

Consider `Oc1cc(C(F)(F)F)ccc1-c1nnc(N[C@@H]2CCCN(C3CCOCC3)C2)n2cccc12` [Compound I-343], for which the IC50 was in the range of 0.001 to 0.01 µM.

`Cc1cc(O)c(-c2nnc(N[C@@H]3CCCN(CCOC(F)F)C3)n3cccc23)c(F)c1` [Compound I-344]: the IC50 was below 0.001 µM.

`CN1CCC[C@@H](Nc2nnc(-c3ccc(C(F)(F)F)cc3O)c3cc(C4CC4)nn23)C1` [Compound I-345]: the IC50 lay within 0.001 to 0.01 µM.

As for `CN1CCC[C@@H](Nc2nnc(-c3ccc(C(F)(F)F)cc3OC(F)F)c3cc(C4CC4)nn23)C1` [Compound I-346], the IC50 fell in the range of 0.001 to 0.01 µM.

`COc1ccc(-c2nnc(N[C@@H]3CCCN(C)C3)n3nc(C4CC4)cc23)c(O)c1` [Compound I-347]: the IC50 lay within 0.01 to 0.1 µM.

Regarding `CN1CCC[C@@H](Nc2nnc(-c3ccc(C(F)(F)F)cc3C(F)(F)F)c3cccn23)C1` [Compound I-348], the IC50 lay within 0.001 to 0.01 µM.

Consider `COc1cc(C(F)(F)F)ccc1-c1nnc(N[C@@H]2CCCN(C)C2)n2cncc12` [Compound I-349, 1-[2-Methoxy-4-(trifluoromethyl)phenyl]-N-[(3R)-1-methyl-3-piperidyl]imidazo[1,5-d][1,2,4]triazin-4-amine], for which the IC50 was 0.001 to 0.01 µM.

As for `OCCN1CCC[C@@H](Nc2nnc(-c3ccc(C(F)(F)F)cc3O)c3cncn23)C1` [Compound I-350], the IC50 is 0.001 to 0.01 µM.

Turning to `COc1ccc(-c2nnc(N[C@@H]3CCCN(C)C3)c3cc(C)nn23)c(O)c1` [Compound I-351], the IC50 fell in the range of 0.01 to 0.1 µM.

`Oc1cc(C(F)(F)F)ccc1-c1nnc(N[C@@H]2CCCNC2)n2cccc12` [Compound I-352]: the IC50 was 0.001 to 0.01 µM.

Regarding `OCCN1CCC[C@@H](Nc2nnc(-c3ccc(C(F)(F)F)cc3O)c3cccn23)C1` [Compound I-353], the IC50 was in the range of 0.001 to 0.01 µM.

In the case of `Cc1ccc(-c2nnc(N[C@@H]3CCCN(CCO)C3)n3cccc23)c(O)c1` [Compound I-354], the IC50 is below 0.001 µM.

On to `CN1CCC[C@@H](Nc2nnc(-c3ccc(Cl)cc3O)c3cccn23)C1` [Compound I-355], for which the IC50 is below 0.001 µM.

For `CN1CCC[C@@H](Nc2nnc(-c3ccc(Cl)cc3OC(F)F)c3cccn23)C1` [Compound I-356, 1-[4-Chloro-2-(difluoromethoxy)phenyl]-N-[(3R)-1-methyl-3-piperidyl]pyrrolo[1,2-d][1,2,4]triazin-4-amine], the IC50 is 0.001 to 0.01 µM.

On to `COc1ccc(-c2nnc(N[C@@H]3CCCN(C)C3)n3cccc23)c(O)c1` [Compound I-357], for which the 50% inhibitory concentration (IC50) was 0.001 to 0.01 µM.

For `COc1ccc(-c2nnc(N[C@@H]3CCCN(CCO)C3)n3cccc23)c(O)c1` [Compound I-358], the IC50 was 0.001 to 0.01 µM.

Take `Cc1cc(O)c(-c2nnc(N[C@@H]3CCCN(C)C3)n3nc(C)cc23)c(F)c1` [Compound I-359]: the IC50 is below 0.001 µM.

For the compound `CCN1CCC[C@@H](Nc2nnc(-c3ccc(C(F)(F)F)cc3O)c3cncn23)C1` [Compound I-360], the IC50 is below 0.001 µM.

`O[C@H]1CCC[C@@H](Nc2nnc(-c3ccc(C(F)(F)F)cc3OC(F)F)c3cccn23)C1` [Compound I-361, (1S,3R)-3-[[1-[2-(Difluoromethoxy)-4-(trifluoromethyl)phenyl]pyrrolo[1,2-d][1,2,4]triazin-4-yl]amino]cyclohexanol]: the IC50 lay in the range of 0.001 to 0.01 µM.

Regarding `CO[C@H]1CCC[C@@H](Nc2nnc(-c3ccc(C(F)(F)F)cc3OC(F)F)c3cccn23)C1` [Compound I-362], the IC50 lay within 0.01 to 0.1 µM.

As to `Cc1cc2c(-c3c(O)cc(C(F)(F)F)cc3F)nnc(N[C@@H]3CCCN(C)C3)n2n1` [Compound I-363], the IC50 was below 0.001 µM.

Consider `CC(C)(O)CN1CCC[C@@H](Nc2nnc(-c3ccc(C(F)(F)F)cc3O)c3cccn23)C1` [Compound I-364], for which the IC50 was 0.001 to 0.01 µM.

In the case of `Oc1cc(OC(F)(F)F)ccc1-c1nnc(N[C@@H]2CCCNC2)n2cccc12` [Compound I-365], the IC50 lay within 0.01 to 0.1 µM.

As to `CN1CCC[C@@H](Nc2nnc(-c3ccc(OC(F)(F)F)cc3O)c3cccn23)C1` [Compound I-366], the IC50 was 0.001 to 0.01 µM.

Consider `Cc1ccc(-c2nnc(N[C@@H]3CCCN(CC(C)(C)O)C3)n3cccc23)c(O)c1` [Compound I-367], for which the IC50 is 0.01 to 0.1 µM.

On to `Oc1cc(Cl)ccc1-c1nnc(N[C@@H]2CCCN(CC(F)F)C2)n2cccc12` [Compound I-368], for which the 50% inhibitory concentration (IC50) lay in the range of 0.01 to 0.1 µM.

On to `OCCN1CCC[C@@H](Nc2nnc(-c3ccc(Cl)cc3O)c3cccn23)C1` [Compound I-369], for which the IC50 is 0.001 to 0.01 µM.

`COc1ccc(-c2nnc(N[C@@H]3CCCN(C)C3)n3cccc23)c(C(F)(F)F)c1` [Compound I-370]: the IC50 fell in the range of 0.001 to 0.01 µM.

Regarding `CCN1CCC[C@@H](Nc2nnc(-c3ccc(C(F)(F)F)cc3C(F)(F)F)c3cccn23)C1` [Compound I-371], the IC50 is below 0.001 µM.

For `CN1CCC[C@@H](Nc2nnc(-c3c(O)cc(C(F)(F)F)cc3F)c3cccn23)C1` [Compound I-372], the IC50 is below 0.001 µM.

Regarding `OCCN1CCC[C@@H](Nc2nnc(-c3ccc(OC(F)(F)F)cc3O)c3cccn23)C1` [Compound I-373], the IC50 was 0.001 to 0.01 µM.

Take `Cc1cc2c(-c3ccc(Br)cc3OC(F)(F)F)nnc(N[C@@H]3CCCN(C)C3)n2n1` [Compound I-374, (R)-4-(4-Bromo-2-(trifluoromethoxy)phenyl)-2-methyl-N-(1-methylpiperidin-3-yl)pyrazolo[1,5-d][1,2,4]triazin-7-amine]: the IC50 lay within 0.001 to 0.01 µM.

As to `Cc1cc2c(-c3ccc(C(F)(F)F)cc3OC(F)F)nnc(N[C@@H]3CCCN(CCO)C3)n2n1` [Compound I-375, (R)-2-(3-((4-(2-(Difluoromethoxy)-4-(trifluoromethyl)phenyl)-2-methylpyrazolo[1,5-d][1,2,4]triazin-7-yl)amino)piperidin-1-yl)ethan-1-ol], the IC50 was in the range of 0.001 to 0.01 µM.

As to `FC(F)Oc1cc(C(F)(F)F)ccc1-c1nnc(N[C@@H]2CCCOC2)n2cccc12` [Compound I-376], the IC50 is 0.001 to 0.01 µM.

With `CCN1CCC[C@@H](Nc2nnc(-c3ccc(OC)cc3O)c3cccn23)C1` [Compound I-377], the IC50 lay within 0.001 to 0.01 µM.

With `N[C@H]1CCC[C@@H](Nc2nnc(-c3ccc(C(F)(F)F)cc3OC(F)F)c3cccn23)C1` [Compound I-378], the IC50 was 0.01 to 0.1 µM.

In the case of `OCCN1CCC[C@@H](Nc2nnc(-c3c(O)cc(C4CC4)cc3F)c3cccn23)C1` [Compound I-379], the IC50 lay within 0.001 to 0.01 µM.

For `CN1CCC[C@@H](Nc2nnc(-c3c(O)cc(C4CC4)cc3F)c3cccn23)C1` [Compound I-380], the IC50 is below 0.001 µM.

Regarding `COc1ccc(-c2nnc(N[C@@H]3CCCN(C)C3)n3nc(C)cc23)c(C(F)(F)F)c1` [Compound I-381], the IC50 lay in the range of 0.001 to 0.01 µM.

`Cc1cc2c(-c3ccc(C(F)(F)F)cc3C(F)(F)F)nnc(N[C@@H]3CCCN(C)C3)n2n1` [Compound I-382]: the IC50 was in the range of 0.001 to 0.01 µM.

On to `COc1cc(Cl)ccc1-c1nnc(N[C@@H]2CCCN(C)C2)n2cncc12` [Compound I-383], for which the IC50 was in the range of 0.001 to 0.01 µM.

Regarding `CN1CCC[C@@H](Nc2nnc(-c3ccc(Cl)cc3O)c3cncn23)C1` [Compound I-384], the IC50 is below 0.001 µM.

As to `CN1C[C@H](O)C[C@@H](Nc2nnc(-c3ccc(C(F)(F)F)cc3OC(F)F)c3cccn23)C1` [Compound I-385, (3R,5R)-5-[[1-[2-(Difluoromethoxy)-4-(trifluoromethyl)phenyl]pyrrolo[1,2-d][1,2,4]triazin-4-yl]amino]-1-methyl-piperidin-3-ol], the IC50 was 0.1 to 0.3 µM.

As for `COc1cc(C(F)(F)F)ccc1-c1nnc(N[C@@H]2CCCN(C)C2)n2ccnc12` [Compound I-386, 8-[2-Methoxy-4-(trifluoromethyl)phenyl]-N-[(3R)-1-methyl-3-piperidyl]imidazo[1,2-d][1,2,4]triazin-5-amine formic acid salt], the IC50 is 0.1 to 0.3 µM.

`CN1C[C@H](O)C[C@@H](Nc2nnc(-c3c(O)cc(C4CC4)cc3F)c3cccn23)C1` [Compound I-387, (3R,5R)-5-[[1-(4-Cyclopropyl-2-fluoro-6-hydroxy-phenyl)pyrrolo[1,2-d][1,2,4]triazin-4-yl]amino]-1-methyl-piperidin-3-ol]: the IC50 fell in the range of 0.01 to 0.1 µM.

As for `FC(F)Oc1cc(C(F)(F)F)ccc1-c1nnc(N[C@@H]2CCOC2)n2cccc12` [Compound I-388], the IC50 fell in the range of 0.001 to 0.01 µM.

Regarding `C[C@H](O)CNc1nnc(-c2ccc(C(F)(F)F)cc2OC(F)F)c2cccn12` [Compound I-389], the IC50 is 0.001 to 0.01 µM.

On to `COc1cc(Br)ccc1-c1nnc(N[C@@H]2CCCNC2)n2nccc12` [Compound I-390], for which the IC50 was in the range of 0.1 to 0.3 µM.

For the compound `Oc1cc(Br)ccc1-c1nnc(N[C@@H]2CCCNC2)n2nccc12` [Compound I-391], the IC50 lay in the range of 0.001 to 0.01 µM.
